Test results as given in patent US5266561A, “Treatment of type 2 diabetes mellitus” (Amylin Pharmaceuticals, Inc., priority 1991, dated 1993).
Where no end group is shown, it is not given here.

Tests used:
rat islet cells [1] = assay: Glucose-stimulated insulin secretion from isolated rat islets of Langerhans; type: cell-based; settings: glucose 10 mmol/L; for RELATIVE INSULIN SECRETION INHIBITION: reduction from control
Method: All experiments were performed by known methods used in experimental practice. See, e.g., Lacey P E, and Kostianovsky M, Method for the isolation of intact islets of Langerhans from the rat Dancreas. Diabetes 1967; 16:35-39.
Briefly, rats were killed, and islets of Langerhans were isolated from their pancreases. Experiments were performed either with freshly isolated islets or after overnight incubation of islets (23 h) in standard culture medium and conditions at 37° C. […] Incubation of islets for these experiments was carried out in standard Krebs-Heinsleit buffer, and it was verified that the addition of the 1.0 mmol/L citrate buffer had no effect on the pH of the incubation medium. Stimulation of islets was carried out at the standard stimulatory glucose concentration of 10 mmol/L.
Production of insulin is expressed as μU/islet/h. All experiments were performed with five replicates per point. The integrity of the islet response was assessed by comparing the responses after stimulation of different aliquots of islets by two and ten mmol/L glucose, respectively, and the strength of the inhibitory response was judged against that induced by 1 μg/ml (650 nmol/L) somatostatin. […] See Arimura A. Biomed res 1981; 2:233-257. […] See Petterson M, Ahren B, Bottcher G, Sundler F, Endocrinology 1986; 119:865-869.
The results are shown in TABLE 5 below and all results are expressed as ± standard error of the mean (s.e.m.). The significance of differences between the means of groups is assessed by the t-test. The result of stimulation by 10 mmol/L glucose is compared with the results of stimulation at 2 mmol/L glucose. In all other experimental conditions, the significance of the inhibitory effect is measured against the effect of 10 mmol/L glucose alone.

rat islet cells [2] = settings: literature statement; cited from earlier work
[3] = target: T1, insulin receptor on red blood cells; assay: Displacement of insulin from its receptor on red blood cells; type: binding
T1 construct: endogenous in cells; host or cells: red blood cells

## C[C@H](N)C(=O)NCC(=O)N[C@H]1CSSC[C@@H](C(=O)O)NC(=O)[C@H](CO)NC(=O)[C@H]([C@@H](C)O)NC(=O)[C@H](Cc2ccccc2)NC(=O)[C@H]([C@@H](C)O)NC(=O)[C@H](CCCCN)NC(=O)[C@H](Cc2c[nH]c3ccccc23)NC(=O)[C@H](Cc2ccccc2)NC(=O)[C@H](Cc2ccccc2)NC(=O)[C@H](CC(N)=O)NC(=O)[C@H](CCCCN)NC1=O [Somatostatin, reference compound]
Rat islet cells [1]; 650 nmol/L
  INSULIN PRODUCTION Mean value: 44 μU/islet/hr
  RELATIVE INSULIN SECRETION INHIBITION: 45%
Rat islet cells [2]
  inhibition of the insulin secretory response of islet B-cells to glucose: known, potent inhibitor

## CGRP 27-37 (FVPTNVGSKAF; ends and bridges not checked; UniProt P06881 109-119, looked up, fragment)
Rat islet cells [1]; 10 nmol/L
  INSULIN PRODUCTION Mean value: 36 μU/islet/hr
  RELATIVE INSULIN SECRETION INHIBITION: 55%
Rat islet cells [1]; 100 nmol/L
  INSULIN PRODUCTION Mean value: 36 μU/islet/hr
  RELATIVE INSULIN SECRETION INHIBITION: 55%
Rat islet cells [1]; 1000 nmol/L
  INSULIN PRODUCTION Mean value: 46 μU/islet/hr
  RELATIVE INSULIN SECRETION INHIBITION: 42%

## amylin: 37-residue peptide from pancreatic amyloid of Type 2 diabetics; source (synthetic or native) not stated at these places (KCNTATCATQRLANFLVHSSNNFGAILSSTNVGSNTY; Islet amyloid polypeptide; UniProt P10997 34-70, looked up)
[3]
  displacing insulin from its receptor on red blood cells: not capable of significantly displacing insulin
